# Experimental data from US10501479B2, “Benzenesulfonyl-asymmetric ureas and medical uses thereof” (HELSINN HEALTHCARE SA, priority 2016, dated 2019).
# pEC50, pIC50: −log10 of the molar value. Read-outs that look alike come from different tables or passages of the source.
# Legend:
# Assay type in all cases: cell-based
# [1] = target: T1, GHSR-1a (HEK293/GHSR1a cell line) (Homo sapiens, UniProt Q92847); test: Ghrelin agonist potency (EC50) with calcium FLIPR assay
# T1 construct: expressed in transfected cells; host or cells: HEK293/GHSR1a cell line
# Summary of the method: (§1)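 Fluorescence read-out of intracellular calcium over 2 min. Agonist EC50 came from compound added alone at t=20 sec. Antagonist IC50 came from the reduction of the response to 10 nM ghrelin co-added with compound at t=20 sec. Both were fitted from dose-response data.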
# [2] = target: T1, GHSR-1a (HEK293/GHSR1a cell line); test: Ghrelin antagonist potency (IC50) with calcium FLIPR assay, ghrelin 10 nM
# Summary of the method: as §1
# [3] = target: T2, recombinant human ghrelin receptor (HEK293/GRLN) (Homo sapiens, UniProt Q92847); test: Ghrelin inverse agonist potency (EC50) with IP-1 (IP-One HTRF) assay; conditions: IP-1 assay
# T2 construct: expressed in transfected cells
# Summary of the method: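 IP-1 accumulation was measured by HTRF (IP1-d2/Tb-cryptate, 620/665 nm read after 1 hour at room temperature) following 1 hour of compound treatment at 37° C. Cells were HEK293 stably expressing human ghrelin receptor, plated a day earlier on Matrigel. Inverse agonist potency was reported as EC50.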
# [4] = HEK293/GHSR1a, read-out: Activity EC50/EMax: EC50 (ghrelin agonist potency)
# [5] = HEK293/GHSR1a, ghrelin 10 nM, read-out: Activity IC50 (ghrelin antagonist potency)
# [6] = HEK293/GRLN, read-out: Activity EC50 (ghrelin inverse agonist potency)
# [7] = ghrelin agonist potency, read-out: Activity EC50/EMax
# [8] = ghrelin antagonist potency, read-out: Activity IC50
# [9] = ghrelin inverse agonist potency, read-out: Activity EC50
# T2 sequence (Q92847 whole entry): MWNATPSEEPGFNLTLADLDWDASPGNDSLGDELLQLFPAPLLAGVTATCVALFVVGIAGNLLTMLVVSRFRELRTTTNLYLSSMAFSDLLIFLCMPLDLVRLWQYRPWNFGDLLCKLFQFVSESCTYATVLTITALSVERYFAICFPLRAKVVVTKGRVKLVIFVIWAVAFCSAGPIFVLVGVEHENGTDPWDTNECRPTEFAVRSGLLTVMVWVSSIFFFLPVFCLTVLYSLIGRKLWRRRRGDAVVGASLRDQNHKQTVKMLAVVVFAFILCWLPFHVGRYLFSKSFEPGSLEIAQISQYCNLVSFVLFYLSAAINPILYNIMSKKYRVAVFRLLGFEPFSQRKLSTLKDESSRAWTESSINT
# T1 sequence (Q92847 whole entry): as above
Compound,"pEC50 [1, 4]","pIC50 [2, 5]","pEC50 [3, 6]","pEC50 [1, 7]","pIC50 [2, 8]","pEC50 [3, 9]",further results
"CC(NC(=O)Nc1ccc(S(=O)(=O)Cc2ccc3c(c2)CNC3)cc1F)c1c(F)cccc1F (stereo not drawn) [H1411, 1-(1-(2,6-difluorophenyl)ethyl)-3-(2-fluoro-4-((isoindolin-5-ylmethyl)sulfonyl)phenyl)urea]",< 4.52,6.91,7.75,–,–,–,–
"CC(NC(=O)Nc1ccc(S(=O)(=O)Cc2ccc3c(c2)C(F)(F)CNC3)cc1)c1cccc(Cl)c1Cl (stereo not drawn) [H1547, 1-(1-(2,3-dichlorophenyl)ethyl)-3-(4-(((4,4-difluoro-1,2,3,4-tetrahydroisoquinolin-6-yl)methyl)sulfonyl)phenyl)urea]",–,–,–,< 4.52,6.34,7.46,–
"COc1ccc(C(C)NC(=O)Nc2ccc(S(=O)(=O)Cc3ccc4c(c3)CNC4)cc2)cc1OC (stereo not drawn) [H1444, 1-(1-(3,4-dimethoxyphenyl)ethyl)-3-(4-((isoindolin-5-ylmethyl)sulfonyl)phenyl)urea]",< 4.52,5.54,6.73,–,–,–,–
"CC(NC(=O)Nc1ccc(S(=O)(=O)Cc2ccc3c(c2)CNC3)cc1)c1ccc2c(c1)OCO2 (stereo not drawn) [H1452, 1-(1-(benzo[d][1,3]dioxol-5-yl)ethyl)-3-(4-((isoindolin-5-ylmethyl)sulfonyl)phenyl)urea]",< 4.52,7.06,7.46,–,–,–,–
"CC(NC(=O)Nc1ccc(S(=O)(=O)Cc2ccc3c(c2)CNC3)cc1)c1ccncc1 (stereo not drawn) [H1274, 1-(4-((isoindolin-5-ylmethyl)sulfonyl)phenyl)-3-(1-(pyridin-4-yl)ethyl)urea]",< 4.52,5.80,6.16,–,–,–,–
"CC(c1ccccc1)n1c(=O)[nH]c2ccc(S(=O)(=O)Cc3ccc4c(c3)CNC4)cc2c1=O (stereo not drawn) [H1469, 6-((isoindolin-5-ylmethyl)sulfonyl)-3-(1-phenylethyl)quinazoline-2,4(1H,3H)-dione]",–,–,–,–,6.96,7.59,"pEC50 ([1]; heading: Activity EC50/EMax, ghrelin agonist potency, read-out: Activity EC50/EMax): 6.96"
"COc1cc(S(=O)(=O)Cc2ccc(CO)cc2)ccc1NC(=O)NC(C)c1ccccc1 (stereo not drawn) [H1433, 1-(4-((4-(hydroxymethyl)benzyl)sulfonyl)-2-methoxyphenyl)-3-(1-phenylethyl)urea]",< 4.52,5.51,6.33,–,–,–,–
"C[C@H](NC(=O)Nc1ccc(S(=O)(=O)Nc2ccc3[nH]cnc3c2)cc1)c1cccc(Cl)c1Cl [H1111, (S)-N-(1H-benzo[d]imidazol-5-yl)-4-(3-(1-(2,3-dichlorophenyl)ethyl)ureido) benzenesulfonamide]",–,–,–,–,–,–,"EC50/EMax: EC50 (Activity) ([1]; ghrelin agonist potency): > 30000 nM; pIC50 ([2]; ghrelin antagonist potency, read-out: IC50 (Activity)): 5.65; pEC50 ([3]; inverse agonist potency, read-out: EC50 (Activity)): 5.91"
"COc1ccc([C@@H](C)NC(=O)Nc2ccc(S(=O)(=O)Cc3ccc4c(c3)CCN(C)C4)cc2F)c(Cl)c1Cl [H1423, (R)-1-(1-(2,3-dichloro-4-methoxyphenyl)ethyl)-3-(2-fluoro-4-(((2-methyl-1,2,3,4-tetrahydroisoquinolin-6-yl)methyl)sulfonyl)phenyl)urea]",< 4.52,6.94,8.42,–,–,–,–
"CC(c1ccccc1)N(C)C(=O)Nc1ccc(S(=O)(=O)Cc2ccc3c(c2)CCNC3)cc1F (stereo not drawn) [H1414, 3-(2-fluoro-4-(((1,2,3,4-tetrahydroisoquinolin-6-yl)methyl)sulfonyl)phenyl)-1-methyl-1-(1-phenylethyl)urea]",< 4.52,5.68,6.23,–,–,–,–
"CNC(=O)c1cc(NC(=O)NC(C)c2ccccc2)ccc1S(=O)(=O)Cc1ccc2c(c1)CNC2 (stereo not drawn) [H1529, 2-((isoindolin-5-ylmethyl)sulfonyl)-N-methyl-5-(3-(1-phenylethyl)ureido)benzamide]",–,–,–,< 4.52,7.32,7.56,–
"CC(=O)N1C2CC=C(CS(=O)(=O)c3ccc(NC(=O)NC(C)c4cccc(Cl)c4Cl)cc3)C1CC2 (stereo not drawn) [H1513, 1-(4-(((8-acetyl-8-azabicyclo[3.2.1]oct-2-en-2-yl)methyl)sulfonyl)phenyl)-3-(1-(2,3-dichlorophenyl)ethyl)urea]",–,–,–,< 4.52,4.84,6.15,–
"CC(NC(=O)Nc1ccc(S(=O)(=O)Cc2ccc3c(c2)CNC3)c(-c2ncco2)c1)c1ccccc1 (stereo not drawn) [H1507, 1-(4-((isoindolin-5-ylmethyl)sulfonyl)-3-(oxazol-2-yl)phenyl)-3-(1-phenylethyl)urea]",–,–,–,< 4.52,7.89,7.71,–
"COc1cccc(OC)c1C(C)NC(=O)Nc1ccc(S(=O)(=O)Cc2ccc3c(c2)CNC3)cc1 (stereo not drawn) [H1450, 1-(1-(2,6-dimethoxyphenyl)ethyl)-3-(4-((isoindolin-5-ylmethyl)sulfonyl)phenyl)urea]",< 4.52,6.54,6.74,–,–,–,–
"C[C@@H](NC(=O)Nc1ccc(S(=O)(=O)Cc2ccc(C3CCCN3)cc2)cc1)c1ccccc1 (stereo partly drawn) [H1332, 1-((R)-1-phenylethyl)-3-(4-((4-(pyrrolidin-2-yl)benzyl)sulfonyl)phenyl)urea]",< 4.52,7.14,7.38,–,–,–,–
"CC(NC(=O)Nc1ccc(S(=O)(=O)Cc2cccc(CN)c2)cc1)c1ccccc1 (stereo not drawn) [H1290, 1-(4-((3-(aminomethyl)benzyl)sulfonyl)phenyl)-3-(1-phenylethyl)urea]",< 4.52,5.47,6.14,–,–,–,–
"CC(NC(=O)Nc1ccc(S(=O)(=O)Cc2cc3c(c(C(F)(F)F)c2)CNCC3)cc1F)c1cccc(Cl)c1Cl (stereo not drawn) [H1400, 1-(1-(2,3-dichlorophenyl)ethyl)-3-(2-fluoro-4-(((8-(trifluoromethyl)-1,2,3,4-tetrahydroisoquinolin-6-yl)methyl)sulfonyl)phenyl)urea]",< 4.52,7.15,7.81,–,–,–,–
"COc1ccc(C(C)NC(=O)Nc2ccc(S(=O)(=O)Cc3ccc4c(c3)CCN(C)C4)cc2OC)cc1 (stereo not drawn) [H1442, 1-(2-methoxy-4-(((2-methyl-1,2,3,4-tetrahydroisoquinolin-6-yl)methyl)sulfonyl)phenyl)-3-(1-(4-methoxyphenyl)ethyl)urea]",< 4.52,7.24,7.79,–,–,–,–
"COc1cc(S(=O)(=O)Cc2nc3c(s2)CNC3)ccc1NC(=O)N[C@@H](C)c1ccccc1 [H1463, (S)-1-(4-(((5,6-dihydro-4H-pyrrolo[3,4-d]thiazol-2-yl)methyl)sulfonyl)-2-methoxyphenyl)-3-(1-phenylethyl)urea]",–,–,–,< 4.52,5.94,6.54,–
"COc1cc(S(=O)(=O)Cc2ccc(CO)cc2)ccc1NC(=O)NC(C)c1ccc(OC)c(Cl)c1Cl (stereo not drawn) [H1435, 1-(1-(2,3-dichloro-4-methoxyphenyl)ethyl)-3-(4-((4-(hydroxymethyl)benzyl)sulfonyl)-2-methoxyphenyl)urea]",< 4.52,< 4.52,< 5.00,–,–,–,–
"COc1ccc(C(C)NC(=O)Nc2ccc(S(=O)(=O)Cc3ccc4c(c3)CN(C)C4)cc2)cc1Cl (stereo not drawn) [H1476, 1-(1-(3-chloro-4-methoxyphenyl)ethyl)-3-(4-(((2-methylisoindolin-5-yl)methyl)sulfonyl)phenyl)urea]",–,–,–,< 4.52,7.37,7.62,–
"COc1cc2c(cc1CS(=O)(=O)c1ccc(NC(=O)NC(C)c3cccc(Cl)c3Cl)cc1)CCN(C)C2 (stereo not drawn) [H1368, 1-(1-(2,3-dichlorophenyl)ethyl)-3-(4-(((7-methoxy-2-methyl-1,2,3,4-tetrahydroisoquinolin-6-yl)methyl)sulfonyl)phenyl)urea]",< 4.52,7.69,8.55,–,–,–,–
"COc1cc(S(=O)(=O)Cc2nc3c(s2)CN(C)C3)ccc1NC(=O)N[C@@H](C)c1ccccc1 [H1464, (S)-1-(2-methoxy-4-(((5-methyl-5,6-dihydro-4H-pyrrolo[3,4-d]thiazol-2-yl)methyl)sulfonyl)phenyl)-3-(1-phenylethyl)urea]",–,–,–,< 4.52,5.53,6.54,–
"C[C@@H](NC(=O)Nc1ccc(S(=O)(=O)Cc2cc3c(s2)CN(C)C3)cc1)c1ccccc1 [H1348, (R)-1-(4-(((5-methyl-5,6-dihydro-4H-thieno[2,3-c]pyrrol-2-yl)methyl)sulfonyl)phenyl)-3-(1-phenylethyl)urea]",< 4.52,7.19,7.70,–,–,–,–
"CC(NC(=O)Nc1ccc(S(=O)(=O)Cc2ccc3c(c2)CNC3)c(C(=O)O)c1)c1ccccc1 (stereo not drawn) [H1530, 2-((isoindolin-5-ylmethyl)sulfonyl)-5-(3-(1-phenylethyl)ureido)benzoic acid]",–,–,–,< 4.52,6.21,6.11,–
"CC(NC(=O)Nc1ccc(C(=O)Nc2ccc3c(c2)CN(C)C3)cc1)c1ccccc1 (stereo not drawn) [H1480, N-(2-methylisoindolin-5-yl)-4-(3-(1-phenylethyl)ureido)benzamide]",–,–,–,< 4.52,4.62,< 5.00,–
"CC(NC(=O)Nc1ccc(S(=O)(=O)Cc2ccc3c(c2)C(F)(F)CN(C)C3)cc1)c1cccc(Cl)c1Cl (stereo not drawn) [H1548, 1-(1-(2,3-dichlorophenyl)ethyl)-3-(4-(((4,4-difluoro-2-methyl-1,2,3,4-tetrahydroisoquinolin-6-yl)methyl)sulfonyl)phenyl)urea]",–,–,–,< 4.52,6.18,6.88,–
